This is an account of results in ChEMBL document CHEMBL5104146, “Anti-inflammatory and anticancer p-terphenyl derivatives from fungi of the genus Thelephora” (Bioorg Med Chem, 2022).

Some results are limits rather than exact numbers.

Experiment [1] is described as follows: Inhibition of TNF-alpha production in rat RBL-2H3 cells. The format is functional, cell-based.
A short description of experiment [2]: Inhibition of Streptococcus pneumoniae FabK using t-o-NAC as substrate in presence of NADPH by […]. (In an ELISA, binding on a coated surface is turned into a signal by an enzyme label.)
The nature of experiment [3]: Inhibition of Staphylococcus aureus FabK using t-o-NAC as substrate in presence of NADPH by […].
A short description of experiment [4]: Inhibition of 17beta-HSD1 (unknown origin). Also on record: species or system Homo sapiens.
A short description of experiment [5]: Inhibition of Escherichia coli FabK using t-o-NAC as substrate in presence of NADPH by […].
Experiment [6] in a line: Inhibition of Saccharomyces cerevisiae alpha-glucosidase using pNPG as substrate preincubated for 10 mins followed by substrate addition measured after 15 mins by absorbance based microplate reader analysis.
Experiment [7] is described as follows: Antioxidant activity assessed as DPPH radical scavenging activity measured after 30 mins under dark condition by microplate reader analysis. It counts as functional. For orientation: Loss of DPPH colour is used to gauge radical scavenging.
In experiment [8] the test system is HepG2. Put plainly: Antiproliferative activity against human HepG2 cells assessed as cell growth inhibition measured after 48 hrs. It counts as functional, cell-based. The following applies: HepG2, 48 h.
A short description of experiment [9]: Antioxidant activity assessed as DPPH radical scavenging activity by absorbance based analysis. It counts as functional.
The subject of experiment [10] is KB 3-1. The experiment can be described thus: Cytotoxicity against human KB 3-1 cells assessed as cell growth inhibition. The format is functional, cell-based.
In experiment [11] the test system is L929. The experiment can be described thus: Cytotoxicity against mouse L929 cells assessed as cell growth inhibition. It counts as functional, cell-based.

As for `O=C(Oc1c(O)c(-c2ccc(O)cc2)c(OC(=O)c2ccc(O)cc2)c(O)c1-c1ccc(O)cc1)c1ccc(O)cc1`, in [1], 3.5 nM corresponded to half-maximal inhibition (IC50).

As for `O=C1C(O)=C(c2ccc(O)cc2)C(=O)C(O)=C1c1ccc(O)cc1`, the figures for the IC50 in experiment [2], in experiment [3] and in experiment [5] were 0.24 µM, over 200 µM and over 200 µM, respectively. The EC50 (usually the concentration needed to bring the measured effect to its halfway point) in experiment [4] was over 100 µM.

Regarding `COC1=C(c2ccc(O)cc2)C(=O)C(OC(=O)c2ccccc2)=C(c2ccc(O)cc2)C1=O`, the half-maximal inhibitory concentration (IC50) – broadly, the midpoint of a concentration-inhibition curve – in experiment [6] turned out to be 18.8 µM. For the same compound, the EC50 in experiment [7] stood at 150 µM.

In experiment [6], `O=C(Oc1c(OC(=O)c2ccccc2)c(-c2ccc(O)cc2)c(OC(=O)c2ccccc2)c(O)c1-c1ccc(O)cc1)c1ccccc1` showed a 50% inhibitory concentration (IC50) of 4.53 µM. Consider `O=C(Cc1ccccc1)Oc1c(OC(=O)Cc2ccccc2)c(-c2ccc(O)cc2)c(O)c(O)c1-c1ccc(O)cc1` [VIALININ A], for which the IC50 in experiment [1] worked out at 0.02 nM; in experiment [8], 7 µM. Take `O=C(Cc1ccccc1)Oc1c(OC(=O)c2ccccc2)c(-c2ccc(O)cc2)c(O)c(O)c1-c1ccc(O)cc1`: the IC50 in [8] came out at 7 µM. `CC(=O)Oc1c(OC(=O)c2ccccc2)c(-c2ccc(O)cc2)c(O)c(O)c1-c1ccc(O)cc1`: the IC50 in experiment [6] was 0.99 µM. In experiment [6], `O=C(Oc1c(O)c(-c2ccc(O)cc2)c(OC(=O)c2ccccc2)c(O)c1-c1ccc(O)cc1)c1ccccc1` had an IC50 of over 50 µM. In experiment [6], `CC(=O)Oc1c(OC(=O)c2ccccc2)c(-c2ccc(O)cc2)c(OC(=O)c2ccccc2)c(OC(=O)c2ccccc2)c1-c1ccc(O)cc1` registered an IC50 of 2.98 µM. On to `O=C1O[C@H]([C@@H](O)CO)C(O)=C1O` [ASCORBIC ACID], for which, in experiment [9], the EC50 worked out at 0.27 µM. Still for that read-out and setting: under `O=C(Cc1ccccc1)Oc1c(O)c(-c2ccc(O)cc2)c(OC(=O)c2ccc(O)cc2)c(O)c1-c1ccc(O)cc1` stands 0.028 µM.

In the case of `O=C1C(O)=C(c2ccc(O)c(O)c2)C(=O)C(O)=C1c1ccc(O)cc1`, the figures for the IC50 in experiment [10], in experiment [2] and in experiment [11] were 7 µM, 1.57 µM and 17 µM, respectively.
